From paper PMC8063233 (The Journal of Clinical Endocrinology and Metabolism, 2020)

Assay: Plasma pharmacokinetics on day 7 of each treatment period
Format: in vivo, human
Conditions: day 7, verinurad + febuxostat with placebo (n = 36)

With CC(C)(Sc1ccncc1-c1ccc(C#N)c2ccccc12)C(=O)O [Verinurad, verinurad] the “tmax, Median (min-max)” value was 4.00 (3.00-8.08) h.
